Tested on: Plasmodium berghei
Assay: Luciferase/luciferin-expressing antifolate-resistant parasites were used to infect a culture of HepG2 cells that were pre-incubated with compounds. Infected hepatocytes emit light due to the luciferase reaction. Assay results are presented as the percent inhibition of light emission compared to control. […]
Type: functional
Conditions: sporozoite; for IC90: read-out: LUCIFERASE INFECTION ASSAY - IC90

SMILES	IC90 [µM]	other results
O=[N+]([O-])c1ccc(Oc2ccc(F)cc2Br)c2ccncc12	9.13	IC50 (HEPG2TOX_HILL_SLOPE 8.14, 7.27, HEPG2TOX_R_SQUARED 0.719, 0.841, PBLUC_HILL_SLOPE 4.57, PBLUC_R_SQUARED 0.39, read-out: LUCIFERASE INFECTION ASSAY - IC50): 5.65 µM
OCc1ccc(-c2ccc3ncc(-c4cccnc4)n3n2)cc1	1.91	IC50 (HEPG2TOX_HILL_SLOPE 8.03, HEPG2TOX_R_SQUARED 0.878, PBLUC_HILL_SLOPE 5.07, PBLUC_R_SQUARED 0.745, read-out: LUCIFERASE INFECTION ASSAY - IC50): 1.24 µM
CN1CCN(c2ccc(-c3cn4c(-c5cccc(O)c5)cnc4cn3)cc2)CC1	> 8.56	IC50 (HEPG2TOX_HILL_SLOPE 8.09, HEPG2TOX_R_SQUARED 0.0909, PBLUC_HILL_SLOPE 1.65, PBLUC_R_SQUARED 0.318, read-out: LUCIFERASE INFECTION ASSAY - IC50): 7.19 µM
COc1cc(/C=C(/C(=O)c2cccc(Cl)c2)c2nc3ccccc3[nH]2)ccc1OCc1ccccc1	> 10	IC50 (HEPG2TOX_HILL_SLOPE 8.02, HEPG2TOX_R_SQUARED 0.115, read-out: LUCIFERASE INFECTION ASSAY - IC50): > 10 µM
Cc1ccc(S(=O)(=O)Oc2ccccc2/C=N/N=C2\NC(=O)CS2)cc1Cl	> 10	IC50 (HEPG2TOX_HILL_SLOPE 8.05, HEPG2TOX_R_SQUARED 0.112, PBLUC_HILL_SLOPE 0.841, PBLUC_R_SQUARED 0.28, read-out: LUCIFERASE INFECTION ASSAY - IC50): > 10 µM
CC(C)c1ccc(Nc2nccc3nc(-c4cccc(C(F)(F)F)c4)[nH]c23)cc1	> 10	IC50 (HEPG2TOX_HILL_SLOPE 8.02, HEPG2TOX_R_SQUARED 0.493, PBLUC_HILL_SLOPE 1.32, PBLUC_R_SQUARED 0.475, read-out: LUCIFERASE INFECTION ASSAY - IC50): 4.04 µM
CCC(C)(C)c1ccc(Oc2ccc(NC(=O)CN3CCN(c4ccccc4O)CC3)cc2)cc1	> 10	IC50 (HEPG2TOX_HILL_SLOPE 8.11, HEPG2TOX_R_SQUARED 0.399, read-out: LUCIFERASE INFECTION ASSAY - IC50): > 10 µM
CCCn1c(NC(=O)c2c(C)nn(Cc3ccccc3)c2Cl)nc2ccccc21	> 10	IC50 (HEPG2TOX_HILL_SLOPE 8.06, 7.61, HEPG2TOX_R_SQUARED 0.217, 0.871, PBLUC_HILL_SLOPE 3.35, PBLUC_R_SQUARED 0.605, read-out: LUCIFERASE INFECTION ASSAY - IC50): 5.57 µM
Cn1cc(C(=O)c2ccccc2O)cc1-c1nc2ccccc2[nH]1	4.94	IC50 (HEPG2TOX_HILL_SLOPE 8.08, HEPG2TOX_R_SQUARED 0.741, PBLUC_HILL_SLOPE 7.01, PBLUC_R_SQUARED 0.754, read-out: LUCIFERASE INFECTION ASSAY - IC50): 3.61 µM
O=C(/C=C/c1ccc(-n2nncc2-c2ccccc2)cc1)c1ccccc1	> 10	IC50 (HEPG2TOX_HILL_SLOPE 8.1, HEPG2TOX_R_SQUARED 0.474, PBLUC_HILL_SLOPE 4.46, PBLUC_R_SQUARED 0.811, read-out: LUCIFERASE INFECTION ASSAY - IC50): 6.74 µM
CCN1C(=O)N(CCC(C)C)C2(CCN(Cc3ccc4c(c3)Cc3ccccc3-4)CC2)C1=O	> 7.41	IC50 (HEPG2TOX_HILL_SLOPE 8.09, HEPG2TOX_R_SQUARED 0.945, PBLUC_HILL_SLOPE 9.13, PBLUC_R_SQUARED 0.509, read-out: LUCIFERASE INFECTION ASSAY - IC50): 5.93 µM
COc1ccc(/C=C(/C(=O)Nc2ccc(Cl)cc2)c2nc3ccccc3s2)cc1O	4.29	IC50 (HEPG2TOX_HILL_SLOPE 8.13, HEPG2TOX_R_SQUARED 0.744, PBLUC_HILL_SLOPE 10.1, PBLUC_R_SQUARED 0.615, read-out: LUCIFERASE INFECTION ASSAY - IC50): 3.45 µM
CCc1ccc(-c2noc(CN3CCN(C(=O)c4ccccc4)CC3)n2)cc1	> 10	IC50 (HEPG2TOX_HILL_SLOPE 8.06, HEPG2TOX_R_SQUARED 0.791, read-out: LUCIFERASE INFECTION ASSAY - IC50): > 10 µM
CCn1c(NC(=O)c2[nH]nc3ccccc23)nc2ccccc21	> 10	IC50 (HEPG2TOX_HILL_SLOPE 8.17, HEPG2TOX_R_SQUARED 0.11, PBLUC_HILL_SLOPE 5.04, PBLUC_R_SQUARED 0.686, read-out: LUCIFERASE INFECTION ASSAY - IC50): 7.76 µM
O=C(c1ccsc1)N1CCc2nc(NCc3cccc(Oc4ccccc4)c3)ncc2C1	> 7.46	IC50 (HEPG2TOX_HILL_SLOPE 8.11, HEPG2TOX_R_SQUARED 0.885, read-out: LUCIFERASE INFECTION ASSAY - IC50): > 7.46 µM
NC(=S)COc1cc(Cl)cc(Cl)c1	> 14	IC50 (HEPG2TOX_HILL_SLOPE 8.05, HEPG2TOX_R_SQUARED 0.893, PBLUC_HILL_SLOPE 16, PBLUC_R_SQUARED 0.105, read-out: LUCIFERASE INFECTION ASSAY - IC50): 13.4 µM

SMILES	IC90 [µM]	other results
CCOC(=O)NC1=C/C(=N\S(=O)(=O)c2ccc(C)cc2)c2ccccc2C1=O	> 10	IC50 (HEPG2TOX_HILL_SLOPE 8.17, HEPG2TOX_R_SQUARED 0.938, PBLUC_HILL_SLOPE 4.13, PBLUC_R_SQUARED 0.0669, read-out: LUCIFERASE INFECTION ASSAY - IC50): > 10 µM
Cc1ccc2nc(NC(=O)c3ccccc3C(F)(F)F)c(C(=O)NCC(C)C)n2c1	7.86	IC50 (HEPG2TOX_HILL_SLOPE 8.05, HEPG2TOX_R_SQUARED 0.91, PBLUC_HILL_SLOPE 18.7, PBLUC_R_SQUARED 0.209, read-out: LUCIFERASE INFECTION ASSAY - IC50): 6.99 µM
CC(C)OCc1cccc(NC(=O)Nc2cccc(Cl)c2)c1	1.8	IC50 (HEPG2TOX_HILL_SLOPE 8.19, HEPG2TOX_R_SQUARED 0.0219, PBLUC_HILL_SLOPE 262, PBLUC_R_SQUARED 0.512, read-out: LUCIFERASE INFECTION ASSAY - IC50): 1.78 µM
O=C(Nc1cccc(C(F)(F)F)c1)Nc1ccc2nc(-c3ccoc3)nn2c1	5.31	IC50 (HEPG2TOX_HILL_SLOPE 8.17, HEPG2TOX_R_SQUARED 0.681, PBLUC_HILL_SLOPE 272, PBLUC_R_SQUARED 0.378, read-out: LUCIFERASE INFECTION ASSAY - IC50): 5.27 µM
CS(=O)(=O)c1ccc(N2CCN(c3ccnc4cc(Cl)ccc34)CC2)c([N+](=O)[O-])c1	8.81	IC50 (HEPG2TOX_HILL_SLOPE 8.04, HEPG2TOX_R_SQUARED 0.676, PBLUC_HILL_SLOPE 3.39, PBLUC_R_SQUARED 0.378, read-out: LUCIFERASE INFECTION ASSAY - IC50): 4.61 µM
COc1ccc(Nc2cc3[nH]c(-c4cccc(C(F)(F)F)c4)cc3cn2)c(C)c1	> 10	IC50 (HEPG2TOX_HILL_SLOPE 8.02, HEPG2TOX_R_SQUARED 0.0629, PBLUC_HILL_SLOPE 11.9, PBLUC_R_SQUARED 0.386, read-out: LUCIFERASE INFECTION ASSAY - IC50): 8.34 µM
O=C(NC1CCSc2ccccc21)c1cnn(Cc2ccccc2Cl)c1 (configuration not stated)	> 10	IC50 (HEPG2TOX_HILL_SLOPE 8.01, HEPG2TOX_R_SQUARED 0.477, PBLUC_HILL_SLOPE 11.5, PBLUC_R_SQUARED 0.343, read-out: LUCIFERASE INFECTION ASSAY - IC50): 9.41 µM
COc1cc(C2(O)CS/C(=C(/C#N)C(=O)Nc3ccc(Cl)cc3)N2c2ccccc2)cc(OC)c1OC (configuration not stated)	> 10	IC50 (HEPG2TOX_HILL_SLOPE 8.02, HEPG2TOX_R_SQUARED 0.929, PBLUC_HILL_SLOPE 8.63, PBLUC_R_SQUARED 0.488, read-out: LUCIFERASE INFECTION ASSAY - IC50): 8.71 µM
CNC(=O)c1ccc(/C=C/C(=O)c2ccc3c4c(cccc24)CC3)cc1	9.31	IC50 (HEPG2TOX_HILL_SLOPE 8.19, HEPG2TOX_R_SQUARED 0.612, PBLUC_HILL_SLOPE 20.8, PBLUC_R_SQUARED 0.622, read-out: LUCIFERASE INFECTION ASSAY - IC50): 8.38 µM
O=C(CSCc1nc(-c2ccc(Cl)cc2)cs1)NNS(=O)(=O)c1ccc(Cl)cc1	> 6.76	IC50 (HEPG2TOX_HILL_SLOPE 8.04, HEPG2TOX_R_SQUARED 0.486, read-out: LUCIFERASE INFECTION ASSAY - IC50): > 6.76 µM
O=C(CSc1ccc(S(=O)(=O)N2CCCCCC2)cn1)N1CCN(c2ccccc2F)CC1	> 10	IC50 (HEPG2TOX_HILL_SLOPE 8.02, HEPG2TOX_R_SQUARED 0.252, PBLUC_HILL_SLOPE 16.3, 0.0846, PBLUC_R_SQUARED 0.285, 0.0684, read-out: LUCIFERASE INFECTION ASSAY - IC50): 9.76 µM
Cc1ccc(-c2csc(Nc3ccccn3)n2)c(C)c1	> 10	IC50 (HEPG2TOX_HILL_SLOPE 8.07, HEPG2TOX_R_SQUARED 0.196, PBLUC_HILL_SLOPE 0.693, PBLUC_R_SQUARED 0.516, read-out: LUCIFERASE INFECTION ASSAY - IC50): 0.441 µM
CCc1cc(OCCCCCCN2CCC(C)CC2)ccc1Cl	7.91	IC50 (HEPG2TOX_HILL_SLOPE 8.01, HEPG2TOX_R_SQUARED 0.5, PBLUC_HILL_SLOPE 3.89, PBLUC_R_SQUARED 0.522, read-out: LUCIFERASE INFECTION ASSAY - IC50): 4.49 µM
Cc1c(-c2ccccc2)oc2c(C(=O)N(Cc3ccccc3Cl)S(=O)(=O)c3cccc(C(F)(F)F)c3)cccc2c1=O	> 10	IC50 (HEPG2TOX_HILL_SLOPE 8.04, HEPG2TOX_R_SQUARED 0.64, PBLUC_HILL_SLOPE 8.59, PBLUC_R_SQUARED 0.6, read-out: LUCIFERASE INFECTION ASSAY - IC50): 7.82 µM
O=C(Nc1ccc(Cl)c(C(F)(F)F)c1)Nc1ccc2nc(-c3ccsc3)nn2c1	9.25	IC50 (HEPG2TOX_HILL_SLOPE 8.17, HEPG2TOX_R_SQUARED 0.277, PBLUC_HILL_SLOPE 11.1, PBLUC_R_SQUARED 0.655, read-out: LUCIFERASE INFECTION ASSAY - IC50): 7.59 µM

— ChEMBL document CHEMBL4483862, “Open-source discovery of chemical leads for next-generation chemoprotective antimalarials” (2018)
